Measured values: PMC11940309, “Endocrine-Disrupting Activities of Flavones on Steroid Receptors: Structural Requirements and Synthesis of Novel Flavone with Improved Estrogenic Activity” (Biomedicines, 2025)
Like-named read-outs stand apart in the source and are kept apart here.

How the values were obtained:
[1] = tested on: estrogen receptor (ER); assay: ER-mediated luciferase reporter induction in T47D KBluc cells; type: cell-based, human; conditions: relative to 1nM estradiol
Experimental: Experiments testing the effect of flavonoids on estrogen receptor-mediated transcription employed T47D KBluc cells. These cells were maintained in RPMI medium with 10% FBS, penicillin (100 U/mL), and streptomycin (100 μg/mL). For reporter gene experiments, cells were detached as above and replated at 50% confluency in phenol red-free RPMI media with 10% charcoal-stripped FBS and antibiotics (day one). All subsequent steps used phenol red-free medium and trypsin. On day three, the medium was replaced with fresh medium. On day five, cells were washed with PBSE, detached, resuspended, diluted, and replated in the phenol red-free RPMI with charcoal-stripped serum (50,000 cells per well as above).
(§1) For all cell lines, cell harvesting and the luminescence assay for alkaline phosphatase and/or luciferase were performed as previously described in detail. Each condition was performed in quadruplicate. […] Percent inhibition is 100 minus the percent induction.

[2] = biological target: T1, progesterone receptor (PR) (Homo sapiens, UniProt P06401); assay: PR-mediated induction of transcription by R5020 in T47D K5pLuc cells (luciferase reporter and endogenous alkaline phosphatase); type: cell-based; conditions: for inhibition at 4 µM / inhibition at 8 µM: T47D; for inhibition at 4 µM / inhibition at 8 µM / % Inhibition of PR Induction: R5020 1.0 nM
T1 sequence (P06401 679-933 limits assumed): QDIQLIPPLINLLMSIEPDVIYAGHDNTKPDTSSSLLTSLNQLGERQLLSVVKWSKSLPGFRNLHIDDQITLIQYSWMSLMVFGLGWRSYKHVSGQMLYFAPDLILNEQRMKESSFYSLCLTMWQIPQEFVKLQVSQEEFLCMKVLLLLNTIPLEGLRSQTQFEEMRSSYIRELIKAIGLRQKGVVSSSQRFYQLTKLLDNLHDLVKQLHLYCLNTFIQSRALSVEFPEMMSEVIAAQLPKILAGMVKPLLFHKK
Description: (§2) The engineered T47D breast cancer cell lines employed for the assessment of flavonoid activity on glucocorticoid receptor (GR) and progesterone receptor (PR) signaling permitted the facile quantitation transcription of both an endogenous gene and a stably integrated reporter gene. […] The T47D K5pLuc cell line responds to progestins via induction of a stably integrated cytokeratin 5-luciferase reporter gene. […] For assessment of the effect of the test compounds on androgen receptor (AR) signaling, we used the HeLa13 cell line engineered to stably express human AR and a PSA-luciferase reporter gene containing a 4× multimerized PSA upstream enhancer ARE1 linked to the E4 TATA box and luciferase gene.
Experiments testing the effect of flavonoids on progesterone receptor-mediated transcription employed T47D K5pluc cells. The protocol was the same as that for T47D (A1-2) cells except the medium was Dulbecco’s Modified Eagle’s Medium supplemented with 10% FBS, insulin (10 nM), puromycin 200 ng/mL, nonessential amino acids, penicillin (100 U/mL), and streptomycin (100 μg/mL). When treated with hormone, the synthetic progestin, R5020, was used at 1.0 nM. Hormone treatment was for 20 h at which time cells were harvested for assay of alkaline phosphatase and luciferase.
as §1

[3] = biological target: T2, human AR (Homo sapiens, UniProt P10275); assay: AR-mediated induction of PSA-luciferase reporter by R1881 in HeLa13 cells; type: cell-based; conditions: for inhibition at 1 µM / inhibition at 4 µM: read-out: % Inhibition of AR-Mediated Gene Induction
T2 construct: expressed in transfected cells; host or cells: HeLa13 (HeLa 13)
T2 sequence (P10275 1-920): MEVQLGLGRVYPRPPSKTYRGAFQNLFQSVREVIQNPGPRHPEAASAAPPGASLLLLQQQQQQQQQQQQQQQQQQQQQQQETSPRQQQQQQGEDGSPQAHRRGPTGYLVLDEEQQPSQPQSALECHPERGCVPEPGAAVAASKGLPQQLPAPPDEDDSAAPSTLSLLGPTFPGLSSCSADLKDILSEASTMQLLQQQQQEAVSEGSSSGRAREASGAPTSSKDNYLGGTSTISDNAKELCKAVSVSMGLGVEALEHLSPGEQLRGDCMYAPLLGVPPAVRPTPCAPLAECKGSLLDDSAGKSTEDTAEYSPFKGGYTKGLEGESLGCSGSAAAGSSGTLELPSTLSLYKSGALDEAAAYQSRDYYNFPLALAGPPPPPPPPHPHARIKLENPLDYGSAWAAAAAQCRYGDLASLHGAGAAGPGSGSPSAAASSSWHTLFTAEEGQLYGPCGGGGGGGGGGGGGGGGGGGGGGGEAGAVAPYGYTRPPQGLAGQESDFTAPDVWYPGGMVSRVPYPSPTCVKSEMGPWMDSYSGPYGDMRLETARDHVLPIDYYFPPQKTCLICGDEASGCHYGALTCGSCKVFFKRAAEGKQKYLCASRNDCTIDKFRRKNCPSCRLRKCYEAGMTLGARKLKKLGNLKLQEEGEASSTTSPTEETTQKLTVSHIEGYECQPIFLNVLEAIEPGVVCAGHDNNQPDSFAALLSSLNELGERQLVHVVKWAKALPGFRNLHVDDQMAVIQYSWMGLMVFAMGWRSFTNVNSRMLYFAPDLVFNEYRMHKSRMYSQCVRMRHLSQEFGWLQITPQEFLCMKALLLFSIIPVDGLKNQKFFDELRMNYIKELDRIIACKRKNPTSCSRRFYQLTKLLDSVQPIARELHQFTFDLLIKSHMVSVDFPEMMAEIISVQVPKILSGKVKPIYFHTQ
Description: as §2
Experiments testing the effect of flavonoid on androgen receptor-mediated transcription employed HeLa 13 cells maintained in MEM medium supplemented with 10% FBS, 0.5 mg/mL G418, 0.05 mg/mL Hygromycin B, […], and streptomycin (100 μg/mL). For reporter gene experiments, cells were replated at a 1:5 dilution in MEM medium with 5% charcoal-stripped FBS and the antibiotics mentioned above. The medium was changed the next day. After 48 h, the cells were washed with PBSE, detached with phenol red-free trypsin, pelleted, resuspended and plated in 96 well plates as above. Hormone and flavonoid treatments were performed as described above with the HeLa 13 medium and charcoal-stripped FBS. When treated with hormone, the synthetic androgen, R1881, was used at 1.0 nM. Hormone treatment was for 20 h at which time cells were harvested for assay of luciferase.
as §1

[4] = 4 µM, AP (alkaline phosphatase)
[5] = 8 µM, AP (alkaline phosphatase)

inhibition at 4 µM [2, 4] [%] | inhibition at 4 µM ([2]; 4 µM, LUC (luciferase)) [%] | inhibition at 8 µM [2, 5] [%] | inhibition at 8 µM ([2]; 8 µM, LUC (luciferase)) [%] | inhibition at 1 µM ([3]; 1 µM, R1881 1.0 nM) [%] | inhibition at 4 µM ([3]; 4 µM, R1881 1.0 nM) [%] | IC50 ([3]; R1881, read-out: IC50, AR antagonism) [nM] | % Inhibition of PR Induction [2, 4] [%] | % Inhibition of PR Induction ([2]; 4 µM, LUC (luciferase)) [%] | % Inhibition of PR Induction [2, 5] [%] | % Inhibition of PR Induction ([2]; 8 µM, LUC (luciferase)) [%] | % Inhibition of AR-Mediated Gene Induction ([3]; 1 µM, R1881 1.0 nM) [%] | % Inhibition of AR-Mediated Gene Induction ([3]; 4 µM, R1881 1.0 nM) [%] | inhibition of PR-mediated gene expression of both reporter genes ([2]; 4.0 micromolar) | inhibition of PR-mediated gene expression of both reporter genes ([2]; 8.0 micromolar) [%] | IC50 ([2]; R5020, alkaline phosphatase and luciferase, read-out: IC50, inhibition of PR-mediated induction of gene expression) [nM] | SMILES | % ER Induction ([1]; 1 µM) [%] | % ER Induction ([1]; 4 µM) [%] | inhibition at 1 µM [3] [%] | inhibition at 4 µM [3] [%]
8 | -64 | 27 | -14 | 40 | 75 | – | – | – | – | – | – | – | – | – | – | O=c1cc(-c2ccc(O)c(O)c2)oc2ccccc12 [3′,4′-dihydroxyflavone] | 0 | 13 | – | –
31 | -62 | 49 | -81 | 29 | 65 | – | – | – | – | – | – | – | – | – | – | O=c1cc(-c2ccc(O)cc2)oc2ccccc12 [4′-hydroxyflavone] | 12 | 130 | – | –
23 | -12 | 74 | 80 | 77 | 97 | ~500 | – | – | – | – | – | – | – | – | – | O=c1cc(-c2ccc(O)cc2)oc2cccc(O)c12 [5,4′-dihydroxyflavone] | 53 | 138 | – | –
– | – | – | – | – | – | – | 12 | −97 | 45 | −19 | −8 | 24 | – | – | – | O=c1cc(-c2cc(O)c(O)c(O)c2)oc2cc(O)cc(O)c12 [5,7,3′4′,5′-pentahydroxyflavone] | 0 | −1 | – | –
82 | 76 | 95 | 95 | -20 | 67 | – | – | – | – | – | – | – | at least 70% | ≥ 90 | 1000 to 2000 | O=c1cc(-c2ccc(O)c(O)c2)oc2cc(O)cc(O)c12 [5,7,3′,4′-tetrahydroxyflavone] | 3 | 80 | – | –
43 | 52 | 90 | 98 | -17 | 9 | – | – | – | – | – | – | – | – | – | – | O=C1CC(c2ccc(O)cc2)Oc2cc(O)cc(O)c21 (stereo not drawn) [5,7,4′-trihydroxyflavanone] | 48 | 93 | – | –
49 | -96 | 32 | – | 55 | 22 | – | – | – | – | – | – | – | – | – | – | O=c1c(-c2ccc(O)cc2)coc2cc(O)cc(O)c12 [5,7,4′-trihydroxyisoflavone] | 125 | 180 | – | –
78 | 71 | 89 | 90 | -13 | 46 | – | – | – | – | – | – | – | at least 70% | ≥ 90 | – | O=c1cc(-c2ccccc2)oc2cc(O)cc(O)c12 [5,7-dihydroxyflavone] | – | – | – | –
39 | -147 | 37 | -103 | 43 | 54 | – | – | – | – | – | – | – | – | – | – | O=c1cc(-c2ccc(O)cc2)oc2ccc(O)cc12 [6,4′-dihydroxyflavone] | 119 | 192 | – | –
13 | -11 | 39 | -10 | -6 | 11 | – | – | – | – | – | – | – | – | – | – | O=c1cc(-c2ccc(O)c(O)c2)oc2cc(O)ccc12 [7,3′,4′-trihydroxyflavone] | 0 | 30 | – | –
41 | -13 | 38 | -126 | – | 24 | – | – | – | – | – | – | – | – | – | – | O=c1c(-c2ccc(O)cc2)coc2cc(O)ccc12 [7,4′-dihydroxyisoflavone] | 125 | – | – | –
10 | -66 | 40 | -107 | -12 | 55 | – | – | – | – | – | – | – | – | – | – | O=c1cc(-c2ccccc2)oc2ccccc12 [flavone] | 1 | 3 | – | –

SMILES | inhibition at 4 µM [2, 4] [%] | inhibition at 4 µM ([2]; 4 µM, LUC (luciferase)) [%] | inhibition at 8 µM [2, 5] [%] | inhibition at 8 µM ([2]; 8 µM, LUC (luciferase)) [%] | inhibition at 1 µM ([3]; 1 µM, R1881 1.0 nM) [%] | inhibition at 4 µM ([3]; 4 µM, R1881 1.0 nM) [%] | IC50 ([3]; R1881, read-out: IC50, AR antagonism) [nM] | % Inhibition of PR Induction [2, 4] [%] | % Inhibition of PR Induction ([2]; 4 µM, LUC (luciferase)) [%] | % Inhibition of PR Induction [2, 5] [%] | % Inhibition of PR Induction ([2]; 8 µM, LUC (luciferase)) [%] | % Inhibition of AR-Mediated Gene Induction ([3]; 1 µM, R1881 1.0 nM) [%] | % Inhibition of AR-Mediated Gene Induction ([3]; 4 µM, R1881 1.0 nM) [%] | inhibition of PR-mediated gene expression of both reporter genes ([2]; 4.0 micromolar) | inhibition of PR-mediated gene expression of both reporter genes ([2]; 8.0 micromolar) [%] | IC50 ([2]; R5020, alkaline phosphatase and luciferase, read-out: IC50, inhibition of PR-mediated induction of gene expression) [nM] | % ER Induction ([1]; 1 µM) [%] | % ER Induction ([1]; 4 µM) [%] | inhibition at 1 µM [3] [%] | inhibition at 4 µM [3] [%]
O=c1cc(-c2ccc(O)c(O)c2)oc2cccc(O)c12 [5,3′,4′-trihydroxyflavone] | 46 | -7 | 65 | 55 | – | – | – | – | – | – | – | – | – | – | – | – | 0 | 13 | 29 | 91
O=C1CC(c2ccc(O)c(O)c2)Oc2cc(O)cc(O)c21 (stereo not drawn) [5,7,3′,4′-tetrahydroxyflavanone] | 8 | 3 | 40 | 23 | – | – | – | – | – | – | – | – | – | – | – | – | 0 | 20 | 13 | 24
COc1ccc([C@@H]2CC(=O)c3c(O)cc(O)cc3O2)cc1O [5,7,3′-triOH, 4′methoxyflavanone] | 8 | -6 | 28 | 16 | – | – | – | – | – | – | – | – | – | – | – | – | 10 | 6 | -28 | -30
O=c1cc(-c2ccc(O)cc2)oc2cc(O)ccc12 [7,4′-dihydroxyflavone] | 41 | -16 | 55 | -49 | – | – | – | – | – | – | – | – | – | – | – | – | 86 | 140 | -18 | -20
